In ChEMBL document CHEMBL1156596, “Overcoming undesirable CYP1A2 inhibition of pyridylnaphthalene-type aldosterone synthase inhibitors: influence of heteroaryl derivatization on potency and selectivity” (J Med Chem, 2008):

Columns and labels:
[1] = molecular target: T1, Cytochrome P450 11B2, mitochondrial (Homo sapiens, UniProt P19099); assay: Inhibition of human CYP11B2 expressed in hamster V79 MZh cells at 500 nM; assay type: cell-based; conditions: V79MZh
T1 sequence (P19099 whole entry): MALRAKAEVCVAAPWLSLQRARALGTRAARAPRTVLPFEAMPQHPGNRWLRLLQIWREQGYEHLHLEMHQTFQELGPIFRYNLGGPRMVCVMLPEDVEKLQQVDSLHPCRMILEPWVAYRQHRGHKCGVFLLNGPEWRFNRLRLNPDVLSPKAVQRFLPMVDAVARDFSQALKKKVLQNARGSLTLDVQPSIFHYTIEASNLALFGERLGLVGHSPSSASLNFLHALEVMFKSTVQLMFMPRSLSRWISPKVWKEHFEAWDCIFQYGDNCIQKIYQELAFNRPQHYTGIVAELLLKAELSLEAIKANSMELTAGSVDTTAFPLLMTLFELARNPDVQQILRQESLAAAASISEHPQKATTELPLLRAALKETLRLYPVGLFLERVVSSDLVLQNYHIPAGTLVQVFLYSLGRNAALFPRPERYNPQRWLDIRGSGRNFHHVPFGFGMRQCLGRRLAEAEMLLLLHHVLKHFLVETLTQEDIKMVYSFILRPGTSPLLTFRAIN

Cytochrome P450 3A4 = Cytochrome P450 3A4 (Homo sapiens, UniProt P08684); assay: Inhibition of human recombinant CYP3A4 expressed in insect microsomes; assay type: ADME, Microsome
CYP1A2 = molecular target: T2, CYP1A2 (Homo sapiens, UniProt P05177); assay: Inhibition of human recombinant CYP1A2 expressed in insect microsomes at 2 uM; assay type: ADME, Microsome
T2 sequence (P05177 whole entry): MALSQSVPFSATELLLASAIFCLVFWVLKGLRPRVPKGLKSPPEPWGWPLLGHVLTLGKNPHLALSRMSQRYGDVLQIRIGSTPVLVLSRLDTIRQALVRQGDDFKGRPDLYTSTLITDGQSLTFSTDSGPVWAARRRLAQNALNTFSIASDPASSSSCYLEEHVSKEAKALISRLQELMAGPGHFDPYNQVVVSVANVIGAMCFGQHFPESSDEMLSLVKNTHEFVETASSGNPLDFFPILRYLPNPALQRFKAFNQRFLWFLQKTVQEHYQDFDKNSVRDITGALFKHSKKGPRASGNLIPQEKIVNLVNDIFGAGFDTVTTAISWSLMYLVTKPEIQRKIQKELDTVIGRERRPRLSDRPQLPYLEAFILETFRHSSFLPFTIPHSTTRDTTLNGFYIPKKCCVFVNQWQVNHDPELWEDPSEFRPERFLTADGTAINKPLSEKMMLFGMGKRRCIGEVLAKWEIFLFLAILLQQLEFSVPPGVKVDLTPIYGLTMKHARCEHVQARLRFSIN

[2] = molecular target: T1, Cytochrome P450 11B2, mitochondrial
Cytochrome P450 2D6 = Cytochrome P450 2D6 (Homo sapiens, UniProt P10635); assay: Inhibition of human recombinant CYP2D6 expressed in insect microsomes; assay type: ADME, Microsome
Cytochrome P450 1A2 = molecular target: T3, Cytochrome P450 1A2 (Homo sapiens, UniProt P05177)
T3 sequence (P05177 whole entry): T2 sequence (P05177 whole entry)

Cytochrome P450 2C9 = Cytochrome P450 2C9 (Homo sapiens, UniProt P11712); assay: Inhibition of human recombinant CYP2C9 expressed in insect microsomes; assay type: ADME, Microsome
CYP17 = molecular target: T4, CYP17 (Homo sapiens, UniProt P05093); assay: Inhibition of human recombinant CYP17 expressed in Escherichia coli at 2 uM
T4 sequence (P05093 whole entry): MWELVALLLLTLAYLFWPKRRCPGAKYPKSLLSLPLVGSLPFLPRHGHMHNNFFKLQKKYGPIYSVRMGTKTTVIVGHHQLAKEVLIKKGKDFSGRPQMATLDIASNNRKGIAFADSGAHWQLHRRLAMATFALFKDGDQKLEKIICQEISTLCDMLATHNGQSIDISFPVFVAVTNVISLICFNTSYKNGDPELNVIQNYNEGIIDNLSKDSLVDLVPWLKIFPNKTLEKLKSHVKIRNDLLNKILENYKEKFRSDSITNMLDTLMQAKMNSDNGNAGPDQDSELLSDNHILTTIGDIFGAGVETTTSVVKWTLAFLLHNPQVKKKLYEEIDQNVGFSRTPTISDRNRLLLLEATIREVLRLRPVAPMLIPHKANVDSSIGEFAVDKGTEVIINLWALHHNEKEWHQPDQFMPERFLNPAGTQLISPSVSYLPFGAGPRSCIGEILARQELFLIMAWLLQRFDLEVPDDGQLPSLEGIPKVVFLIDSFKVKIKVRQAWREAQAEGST

[3] = molecular target: T5, Cytochrome P450 11B1, mitochondrial (Homo sapiens, UniProt P15538)
T5 sequence (P15538 whole entry): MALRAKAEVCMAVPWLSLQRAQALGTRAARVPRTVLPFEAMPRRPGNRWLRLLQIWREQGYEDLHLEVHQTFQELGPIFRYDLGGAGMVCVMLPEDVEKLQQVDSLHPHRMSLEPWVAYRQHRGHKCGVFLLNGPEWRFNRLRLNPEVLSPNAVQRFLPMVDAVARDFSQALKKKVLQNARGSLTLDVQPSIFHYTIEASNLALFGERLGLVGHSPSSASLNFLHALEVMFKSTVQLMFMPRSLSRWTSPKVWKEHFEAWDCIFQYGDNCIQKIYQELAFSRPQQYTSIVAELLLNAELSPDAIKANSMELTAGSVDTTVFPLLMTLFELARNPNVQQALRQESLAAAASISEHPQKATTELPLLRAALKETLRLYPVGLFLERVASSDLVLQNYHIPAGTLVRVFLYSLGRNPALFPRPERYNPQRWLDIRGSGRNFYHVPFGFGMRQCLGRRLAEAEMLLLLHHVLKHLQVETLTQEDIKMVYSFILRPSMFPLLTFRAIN

Homo sapiens = species: Homo sapiens; assay: Selectivity ratio of IC50 for human CYP11B1 to IC50 for human CYP11B2
Cytochrome P450 2B6 = molecular target: T6, Cytochrome P450 2B6 (Homo sapiens, UniProt P20813); assay: Inhibition of human recombinant CYP2B6 expressed in insect microsomes; assay type: ADME, Microsome
T6 sequence (P20813 whole entry): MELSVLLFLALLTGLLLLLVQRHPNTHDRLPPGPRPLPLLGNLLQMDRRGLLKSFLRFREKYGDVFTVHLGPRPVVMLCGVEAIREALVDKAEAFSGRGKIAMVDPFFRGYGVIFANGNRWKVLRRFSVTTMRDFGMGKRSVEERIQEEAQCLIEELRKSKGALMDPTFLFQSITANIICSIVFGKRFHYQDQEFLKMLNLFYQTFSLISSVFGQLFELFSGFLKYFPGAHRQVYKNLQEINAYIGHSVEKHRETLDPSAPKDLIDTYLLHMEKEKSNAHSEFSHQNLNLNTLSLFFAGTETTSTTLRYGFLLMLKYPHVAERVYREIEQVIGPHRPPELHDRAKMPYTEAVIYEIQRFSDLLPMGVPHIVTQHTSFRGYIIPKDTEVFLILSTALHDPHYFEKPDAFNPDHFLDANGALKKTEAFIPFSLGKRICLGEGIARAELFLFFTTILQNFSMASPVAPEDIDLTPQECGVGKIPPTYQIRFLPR

CYP19 (aromatase) = molecular target: T7, CYP19 (aromatase) (Homo sapiens, UniProt P11511); assay: Inhibition of human placental CYP19 at 500 nM
T7 sequence (P11511 whole entry): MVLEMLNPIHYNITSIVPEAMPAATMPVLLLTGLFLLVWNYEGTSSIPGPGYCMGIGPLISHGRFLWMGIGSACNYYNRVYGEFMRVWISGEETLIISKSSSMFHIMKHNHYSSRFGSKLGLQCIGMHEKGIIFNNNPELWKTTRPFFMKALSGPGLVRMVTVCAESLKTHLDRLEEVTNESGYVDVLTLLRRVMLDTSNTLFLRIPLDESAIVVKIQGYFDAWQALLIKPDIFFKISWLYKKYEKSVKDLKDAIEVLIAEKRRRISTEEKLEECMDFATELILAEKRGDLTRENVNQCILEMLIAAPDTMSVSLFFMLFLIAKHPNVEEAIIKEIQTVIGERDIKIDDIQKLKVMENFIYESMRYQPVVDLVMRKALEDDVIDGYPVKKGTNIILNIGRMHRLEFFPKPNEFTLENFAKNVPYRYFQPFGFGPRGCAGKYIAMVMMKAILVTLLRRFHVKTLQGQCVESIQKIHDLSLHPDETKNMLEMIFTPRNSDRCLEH

Cytochrome P450 2C19 = Cytochrome P450 2C19 (Homo sapiens, UniProt P33261); assay: Inhibition of human recombinant CYP2C19 expressed in insect microsomes; assay type: ADME, Microsome
[4] = Cmax in Wistar rat at 5 mg/kg, po; assay type: ADME, organism-based; set-up: dose 5 mg/kg, route oral; conditions: in vivo
CYP11B1 = molecular target: T8, CYP11B1 (Homo sapiens, UniProt P15538); assay: in vitro; conditions: hamster V79 MZh cells expressing human CYP11B1
T8 sequence (P15538 whole entry): T5 sequence (P15538 whole entry)

[5] = Plasma concentration in Wistar rat plasma at 5 mg/kg, po after 2 hrs; assay type: ADME, organism-based; set-up: dose 5 mg/kg, route oral
[6] = Tmax in Wistar rat at 5 mg/kg, po; assay type: ADME, organism-based; set-up: dose 5 mg/kg, route oral; conditions: in vivo
[7] = Plasma concentration in Wistar rat plasma at 5 mg/kg, po after 8 hrs; assay type: ADME, organism-based; set-up: dose 5 mg/kg, route oral
in vivo = conditions: Wistar, rat, po, 5 mg/kg
[8] = Terminal half life in Wistar rat at 5 mg/kg, po; assay type: ADME, organism-based; set-up: dose 5 mg/kg, route oral; conditions: in vivo
[9] = Plasma concentration in Wistar rat plasma at 5 mg/kg, po after 6 hrs; assay type: ADME, organism-based; set-up: dose 5 mg/kg, route oral
[10] = Plasma concentration in Wistar rat plasma at 5 mg/kg, po after 4 hrs; assay type: ADME, organism-based; set-up: dose 5 mg/kg, route oral
[11] = Plasma concentration in Wistar rat plasma at 5 mg/kg, po after 1 hr; assay type: ADME, organism-based; set-up: dose 5 mg/kg, route oral

Chain of Cytochrome P450 3A4 (P08684 whole entry): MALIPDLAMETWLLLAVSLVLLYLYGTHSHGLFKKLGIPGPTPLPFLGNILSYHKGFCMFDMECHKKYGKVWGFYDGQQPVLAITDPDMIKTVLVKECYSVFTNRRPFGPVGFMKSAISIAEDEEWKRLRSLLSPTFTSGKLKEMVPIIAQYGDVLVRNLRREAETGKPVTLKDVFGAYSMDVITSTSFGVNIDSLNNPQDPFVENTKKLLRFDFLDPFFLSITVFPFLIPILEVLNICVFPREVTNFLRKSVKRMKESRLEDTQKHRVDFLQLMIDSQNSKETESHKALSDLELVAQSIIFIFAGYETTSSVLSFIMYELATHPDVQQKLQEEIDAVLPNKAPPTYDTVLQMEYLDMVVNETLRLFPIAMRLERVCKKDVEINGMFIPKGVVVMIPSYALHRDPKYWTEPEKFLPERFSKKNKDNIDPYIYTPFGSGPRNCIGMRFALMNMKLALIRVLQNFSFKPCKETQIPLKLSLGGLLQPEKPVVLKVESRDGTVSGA
Chain of Cytochrome P450 2D6 (P10635 whole entry): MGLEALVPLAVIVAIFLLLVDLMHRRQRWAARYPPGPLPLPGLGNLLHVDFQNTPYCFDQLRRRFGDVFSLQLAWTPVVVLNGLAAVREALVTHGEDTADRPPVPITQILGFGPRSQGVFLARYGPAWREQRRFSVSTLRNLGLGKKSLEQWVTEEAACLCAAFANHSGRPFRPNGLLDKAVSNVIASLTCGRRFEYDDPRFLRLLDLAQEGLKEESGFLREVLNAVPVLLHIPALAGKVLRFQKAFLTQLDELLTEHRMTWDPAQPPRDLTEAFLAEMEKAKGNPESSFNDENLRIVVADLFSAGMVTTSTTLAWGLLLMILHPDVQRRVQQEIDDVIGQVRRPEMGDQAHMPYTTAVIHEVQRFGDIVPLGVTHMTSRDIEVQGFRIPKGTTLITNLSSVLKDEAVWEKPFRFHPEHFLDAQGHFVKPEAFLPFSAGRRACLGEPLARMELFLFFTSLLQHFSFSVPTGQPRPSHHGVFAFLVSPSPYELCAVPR
Chain of Cytochrome P450 2C9 (P11712 whole entry): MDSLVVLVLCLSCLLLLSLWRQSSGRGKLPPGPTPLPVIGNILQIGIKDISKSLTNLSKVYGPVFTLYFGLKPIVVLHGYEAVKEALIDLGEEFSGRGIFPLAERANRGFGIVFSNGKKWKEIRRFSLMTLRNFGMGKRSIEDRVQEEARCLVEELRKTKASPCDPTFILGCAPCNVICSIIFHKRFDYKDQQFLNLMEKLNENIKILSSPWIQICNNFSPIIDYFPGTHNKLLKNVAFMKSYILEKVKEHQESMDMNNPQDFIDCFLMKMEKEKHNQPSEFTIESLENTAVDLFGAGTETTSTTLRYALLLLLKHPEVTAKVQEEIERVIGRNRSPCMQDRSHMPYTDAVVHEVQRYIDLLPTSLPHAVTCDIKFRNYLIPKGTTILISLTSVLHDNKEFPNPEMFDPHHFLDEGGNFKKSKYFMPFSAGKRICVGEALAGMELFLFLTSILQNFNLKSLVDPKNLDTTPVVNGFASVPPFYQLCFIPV
Chain of Cytochrome P450 2C19 (P33261 whole entry): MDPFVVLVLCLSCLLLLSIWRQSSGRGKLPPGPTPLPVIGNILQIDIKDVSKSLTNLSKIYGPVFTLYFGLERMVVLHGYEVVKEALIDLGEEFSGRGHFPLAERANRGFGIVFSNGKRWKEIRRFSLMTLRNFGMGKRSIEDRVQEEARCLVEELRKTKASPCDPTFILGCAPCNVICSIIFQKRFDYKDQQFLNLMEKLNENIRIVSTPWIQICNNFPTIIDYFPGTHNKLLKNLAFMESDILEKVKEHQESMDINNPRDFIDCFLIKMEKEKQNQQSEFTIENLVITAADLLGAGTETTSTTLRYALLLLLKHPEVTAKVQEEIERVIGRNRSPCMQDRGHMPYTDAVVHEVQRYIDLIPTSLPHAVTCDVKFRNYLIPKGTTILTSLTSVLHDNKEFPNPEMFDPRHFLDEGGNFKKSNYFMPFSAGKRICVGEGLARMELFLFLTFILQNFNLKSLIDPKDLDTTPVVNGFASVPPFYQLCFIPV

Row | Structure (SMILES) | IC50 (Cytochrome P450 3A4) [µM] | inhibition at 2 µM (CYP1A2) [%] | IC50 [2] [nM] | IC50 (Cytochrome P450 2D6) [µM] | IC50 (Cytochrome P450 1A2) [nM] | IC50 (Cytochrome P450 2C9) [µM] | inhibition at 2 µM (CYP17) [%] | IC50 [3] [nM] | Ratio IC50 (Homo sapiens) | IC50 (Cytochrome P450 2B6) [µM] | inhibition at 0.5 µM (CYP19 (aromatase)) [%] | IC50 (Cytochrome P450 2C19) [µM] | Cmax [4] [ng/mL] | other results
1 | COc1ccc2cc(-c3cncc(C(=O)O)c3)ccc2c1 |  |  |  |  |  |  |  |  |  |  |  |  |  | inhibition at 0.5 µM [1]: 7%
2 | COc1cncc(-c2ccc3cc(OC)ccc3c2)c1 | 1.91 | 91 | 4.2 | > 25 | 83 | 1.89 | 41 | 238 | 57 | > 25 | 14 | > 25 |  | 
3 | COc1ccc2cc(-c3cnccc3N)ccc2c1 | 21.1 | 58 | 13 | 11.1 | 1420 | 49 | 42 | 1520 | 117 | > 50 | 47 | 45.8 | < 1.5 | 
4 | N#Cc1ccc2cc(-c3cccnc3)ccc2c1 |  | 97 | 2.9 |  |  |  |  |  | 239 |  |  |  |  | IC50 (CYP11B1): 691 nM
5 | COc1ccc2cc(-c3cccnc3)ccc2c1 |  | 98 |  |  |  |  |  |  |  |  |  |  | 222 | concentration at 2 h [5]: 145 ng/mL; Tmax [6]: 1 h; concentration at 8 h [7]: 59.2 ng/mL; AUC(0-inf) (in vivo; plasma): 1540 ng·h/mL; half-life [8]: 324 min; concentration at 6 h [9]: 133 ng/mL; concentration at 4 h [10]: 124 ng/mL; concentration at 1 h [11]: 84.5 ng/mL
6 | N#Cc1ccc(C2CCCc3cncn32)cc1 (configuration not stated) [FADROZOLE] |  | 8 |  |  |  |  |  |  |  |  |  |  | 454 | Tmax [6]: 1 h; AUC(0-inf) (in vivo; in vivo): 3580 ng·h/mL; half-life [8]: 132 min
7 | COc1ccc2cc(-c3cncc(C(C)=O)c3)ccc2c1 | 9.07 | 80 | 2.1 | > 200 | 488 | > 200 | 36 | 255 | 121 | > 50 | < 5 | > 200 |  | 
